Entries after “also recorded” stand apart in the source; their conditions may differ.
B1: magrolimab: anti-CD47 antibody (antibody, chains of the INN, looked up, V domains shown)
VH: QVQLVQSGAEVKKPGASVKVSCKASGYTFTNYNMHWVRQAPGQRLEWMGTIYPGNDDTSYNQKFKDRVTITADTSASTAYMELSSLRSEDTAVYYCARGGYRAMDYWGQGTLVTVSS
VL: DIVMTQSPLSLPVTPGEPASISCRSSQSIVYSNGNTYLGWYLQKPGQSPQLLIYKVSNRFSGVPDRFSGSGSGTDFTLKISRVEAEDVGVYYCFQGSHVPYTFGQGTKLEIK

Test system: U937 AML cells
Assay: AML xenograft model: luciferase-expressing U937 tumor cells in NSG mice, in-vivo bioluminescent imaging
Details: U937 i.v., azacitidine 7.5 mg/kg QD 5 days i.p., NAE1 SMI 120 mg/kg QD 5 days on, 2 days rest, magrolimab 250 μg QD
Protocol: FIG. 3 illustrates that NAE1 inhibition in combination with CD47 blockade elicits robust anti-tumor efficacy in an AML xenograft model. Luciferase-expressing U937 tumor cell were transferred to NSG mice by intravenous injection. On day 5, mice were randomized into cohorts and treated with Vehicle [20% (2-Hydroxypropyl)-β-cyclodextrin], azacitidine (7.5 mg/kg QD for 5 days), or NAE1 small molecule inhibitor (120 mg/kg QD for 5 days followed by 2 days/rest) by intraperitoneal injection. Magrolimab was administered 48 hours post chemo treatment (250 μg QD for the entire study) as a single agent or in combination. Tumor growth was monitored using in-vivo bioluminescent imaging and the resulting signal was reported as total flux.
To evaluate, if the combination of NAE1 SMI with magrolimab could increase the elimination of leukemia cells in vivo, a treatment study was conducted in mice transplanted with U937 AML cells. In addition to NAE1 SMI, azacitidine, a hypomethylating and chemotherapeutic agent indicated for AML was also included into the study, since azacitidine had previously been established to enhance elimination of AML cells when combined with magrolimab (Chao, et al., Front Oncol (2020) 9:1380). […]

Molecule	tumor growth / cancer remission (result in words)
Nc1ncn([C@@H]2O[C@H](CO)[C@@H](O)[C@H]2O)c(=O)n1 [azacitidine, 5-azacytidine, reference compound]	did initially slow tumor growth compared to vehicle control but failed to stop cancer progression
B1	did initially slow tumor growth compared to vehicle control but failed to stop cancer progression; also recorded: modest
